From publication PMC3222276 (ACS chemical biology, 2010) come the findings set out here.

One test concerns the target cathepsin B (Homo sapiens, UniProt P07858). Kind of test: Inhibition of recombinant cathepsin B. Particulars: read-out: Cathepsin B IC50; enzyme 360nM, substrate 50μM, pH 6.25, 30min.
For a further test, the target named is cathepsin L (Homo sapiens, UniProt P07711). As to the kind of experiment: Inhibition of recombinant cathepsin L. Particulars: read-out: Cathepsin L IC50; enzyme 100nM, substrate 10μM, pH 6.25, 30min.
cathepsin L, sequence (P07711 114-333, species assumed): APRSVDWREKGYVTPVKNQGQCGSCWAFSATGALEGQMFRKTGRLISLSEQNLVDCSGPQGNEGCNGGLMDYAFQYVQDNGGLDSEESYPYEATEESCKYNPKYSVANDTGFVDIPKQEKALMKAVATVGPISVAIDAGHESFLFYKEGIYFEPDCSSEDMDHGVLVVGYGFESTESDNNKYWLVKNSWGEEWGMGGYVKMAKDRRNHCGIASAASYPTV

As usually defined, the IC50 is the concentration needed to halve the response being measured. As to JPM-OEt, the IC50 at cathepsin B amounted to 780 nM; at cathepsin L, 2980 nM.
